Test results taken from ChEMBL document CHEMBL3813644, “Utilization of Structure-Based Design to Identify Novel, Irreversible Inhibitors of EGFR Harboring the T790M Mutation” (ACS Med Chem Lett, 2016).
Values after ≈ are worked out from the molar mass of the structure shown. Active and inactive are the calls of the source. The calls are words filed in the database; no cut-off is given here.

Assays:
[1] = target: Epidermal growth factor receptor (Homo sapiens, UniProt P00533, EX19DEL); experiment: Inhibition of EGFR exon19 deletion activating mutant autophosphorylation in human PC9 cells incubated for 2 hrs by ELISA; type: cell-based, PC-9
[2] = Solubility of compound at pH 7.4; type: physicochemical; conditions: buffer
[3] = Intrinsic clearance in human liver microsomes; type: ADME; conditions: read-out: CLH
[4] = target: T1, Epidermal growth factor receptor (Homo sapiens, UniProt P00533, L858R/T790M); experiment: Inhibition of EGFR T790M/L858R double mutant autophosphorylation in human NCI-H1975 cells incubated for 2 hrs by ELISA; type: cell-based
[5] = target: T2, Epidermal growth factor receptor (Homo sapiens, UniProt P00533); experiment: Inhibition of wild-type EGFR autophosphorylation in human LoVo cells incubated for 2 hrs followed by EGF-stiumlation for 10 mins by ELISA; type: cell-based
[6] = target: T1, Epidermal growth factor receptor; experiment: Inhibition of recombinant N-terminal GST-tagged human EGFR T790M/L858R double mutant using biotinylated TK substrate incubated for 50 mins by HTRF assay; type: protein assay
[7] = tested on: Epidermal growth factor receptor (Homo sapiens), P00533 [T790M]; experiment: Reversible inhibition of EGFR T790M mutant (unknown origin)
Homo sapiens = species on record: Homo sapiens; experiment: Selectivity ratio of IC50 for wild-type EGFR (unknown origin) to IC50 for recombinant N-terminal GST-tagged human EGFR T790M/L858R double mutant
[8] = Chemical stability of compound; type: physicochemical
[9] = Antiproliferative activity against human PC9 cells assessed as growth inhibition incubated for 72 hrs by SYTOX green nucleic acid stain-based fluorescence analysis; type: functional; conditions: PC-9, 72 h
A-431 = experiment: Antitumor activity against human A431 cells harboring wild-type EGFR xenografted in mouse at 50 mg/kg/day, po qd for 7 days; type: functional; conditions: A-431, po, 168 h, read-out: TGI
[10] = Antitumor activity against human PC9 cells harboring EGFR exon19 deletion activating mutant xenografted in mouse at 50 mg/kg/day, po qd for 7 days; type: functional; conditions: PC-9, po, 168 h, read-out: TGI
NCI-H1975 [11] = experiment: Antitumor activity against human NCI-H1975 cells harboring EGFR T790M/L858R double mutant xenografted in mouse at 50 mg/kg/day, po qd for 7 days; type: functional; conditions: 168 h, read-out: TGI
[12] = Antiproliferative activity against human Calu6 cells incubated for 72 hrs by SYTOX green nucleic acid stain-based fluorescence analysis; type: cell-based, Calu-6
[13] = Selectivity ratio of GI50 for human Calu6 cells to GI50 for human NCI-H1975 cells; type: ADME, cell-based; conditions: Calu6 cells and NCI-H1975 cells, read-out: RatioGI50
Mus musculus = experiment: T>EC50 in female nude mouse assessed as time duration during which plasma concentration covers cellular EC50 for EGFR T790M/L858R double mutant autophosphorylation in human NCI-H1975 cells at 50 mg/kg, po; type: ADME, organism-based; conditions: in vivo
[14] = target: T3, Tyrosine-protein kinase JAK3 (Homo sapiens) (UniProt P52333); experiment: Inhibition of human JAK3 at 1 uM
T3 sequence (whole entry): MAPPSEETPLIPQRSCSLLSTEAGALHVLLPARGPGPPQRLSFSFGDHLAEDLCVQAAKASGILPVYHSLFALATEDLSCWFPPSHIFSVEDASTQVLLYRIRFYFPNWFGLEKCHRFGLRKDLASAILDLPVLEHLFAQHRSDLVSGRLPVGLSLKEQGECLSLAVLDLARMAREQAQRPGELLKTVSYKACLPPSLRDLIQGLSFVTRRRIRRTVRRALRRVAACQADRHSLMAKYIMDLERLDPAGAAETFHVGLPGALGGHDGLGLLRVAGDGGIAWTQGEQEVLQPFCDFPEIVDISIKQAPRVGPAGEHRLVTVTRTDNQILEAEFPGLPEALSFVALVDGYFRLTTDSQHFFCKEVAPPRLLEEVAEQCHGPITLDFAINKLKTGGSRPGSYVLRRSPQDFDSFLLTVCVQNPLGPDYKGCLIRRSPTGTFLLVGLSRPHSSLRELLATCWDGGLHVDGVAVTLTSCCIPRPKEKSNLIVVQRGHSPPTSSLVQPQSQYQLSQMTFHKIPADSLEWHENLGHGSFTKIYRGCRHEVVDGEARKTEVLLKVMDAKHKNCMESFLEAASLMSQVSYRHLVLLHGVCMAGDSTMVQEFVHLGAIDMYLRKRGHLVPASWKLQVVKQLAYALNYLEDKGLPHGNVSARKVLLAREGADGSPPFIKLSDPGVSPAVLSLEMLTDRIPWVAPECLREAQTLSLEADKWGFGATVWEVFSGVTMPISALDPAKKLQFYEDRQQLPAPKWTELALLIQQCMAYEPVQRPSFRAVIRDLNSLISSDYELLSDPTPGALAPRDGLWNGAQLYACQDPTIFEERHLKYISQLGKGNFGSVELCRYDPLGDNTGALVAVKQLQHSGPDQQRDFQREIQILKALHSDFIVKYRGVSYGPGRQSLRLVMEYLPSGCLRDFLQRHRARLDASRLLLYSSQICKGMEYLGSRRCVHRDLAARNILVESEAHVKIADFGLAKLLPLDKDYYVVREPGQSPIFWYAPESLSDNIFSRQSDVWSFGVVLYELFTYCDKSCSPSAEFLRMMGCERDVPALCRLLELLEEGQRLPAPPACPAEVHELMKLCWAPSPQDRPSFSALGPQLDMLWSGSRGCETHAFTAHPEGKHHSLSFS

NCI-H1975 [15] = experiment: Antiproliferative activity against human NCI-H1975 cells assessed as growth inhibition incubated for 72 hrs by SYTOX green nucleic acid stain-based fluorescence analysis; type: functional; conditions: NCI-H1975, 72 h
[16] = tested on: Epidermal growth factor receptor (Homo sapiens), P00533 [L858R,T790M]; experiment: Inhibition of human EGFR T790M/L858R double mutant at 1 uM; type: protein assay
[17] = target: T2, Epidermal growth factor receptor; experiment: Inhibition of wild-type human EGFR at 1 uM

T1 sequence (P00533 25-1210 T790M/L858R limits assumed): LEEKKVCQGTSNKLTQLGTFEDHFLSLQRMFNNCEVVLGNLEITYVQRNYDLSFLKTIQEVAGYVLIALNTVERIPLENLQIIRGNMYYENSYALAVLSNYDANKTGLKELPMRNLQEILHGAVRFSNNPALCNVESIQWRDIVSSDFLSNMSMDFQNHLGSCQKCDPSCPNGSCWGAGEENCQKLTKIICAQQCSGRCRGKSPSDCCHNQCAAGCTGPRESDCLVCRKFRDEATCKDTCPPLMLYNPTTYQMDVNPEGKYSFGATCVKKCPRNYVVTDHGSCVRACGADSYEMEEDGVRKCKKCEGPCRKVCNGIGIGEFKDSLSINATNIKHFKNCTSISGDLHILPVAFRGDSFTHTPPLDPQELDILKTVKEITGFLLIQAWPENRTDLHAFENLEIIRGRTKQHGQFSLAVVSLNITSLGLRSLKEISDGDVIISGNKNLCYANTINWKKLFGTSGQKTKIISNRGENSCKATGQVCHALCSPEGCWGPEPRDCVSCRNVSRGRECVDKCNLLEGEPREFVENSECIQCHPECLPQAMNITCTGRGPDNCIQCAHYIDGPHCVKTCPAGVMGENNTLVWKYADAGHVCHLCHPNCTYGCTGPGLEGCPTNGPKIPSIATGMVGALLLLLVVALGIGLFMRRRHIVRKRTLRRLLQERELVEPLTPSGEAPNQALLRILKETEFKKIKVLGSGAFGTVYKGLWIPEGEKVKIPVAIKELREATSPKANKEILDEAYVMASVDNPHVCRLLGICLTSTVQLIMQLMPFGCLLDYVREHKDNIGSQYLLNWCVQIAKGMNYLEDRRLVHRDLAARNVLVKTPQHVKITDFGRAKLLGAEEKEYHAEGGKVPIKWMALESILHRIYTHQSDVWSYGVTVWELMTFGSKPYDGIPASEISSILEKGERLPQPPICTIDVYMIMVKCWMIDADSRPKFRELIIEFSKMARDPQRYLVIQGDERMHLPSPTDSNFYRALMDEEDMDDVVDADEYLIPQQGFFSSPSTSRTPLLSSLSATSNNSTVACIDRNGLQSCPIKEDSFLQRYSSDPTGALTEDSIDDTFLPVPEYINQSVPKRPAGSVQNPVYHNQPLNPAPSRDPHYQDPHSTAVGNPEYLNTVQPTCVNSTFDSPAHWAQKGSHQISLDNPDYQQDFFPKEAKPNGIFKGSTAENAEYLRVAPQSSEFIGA
T2 sequence (P00533 whole entry): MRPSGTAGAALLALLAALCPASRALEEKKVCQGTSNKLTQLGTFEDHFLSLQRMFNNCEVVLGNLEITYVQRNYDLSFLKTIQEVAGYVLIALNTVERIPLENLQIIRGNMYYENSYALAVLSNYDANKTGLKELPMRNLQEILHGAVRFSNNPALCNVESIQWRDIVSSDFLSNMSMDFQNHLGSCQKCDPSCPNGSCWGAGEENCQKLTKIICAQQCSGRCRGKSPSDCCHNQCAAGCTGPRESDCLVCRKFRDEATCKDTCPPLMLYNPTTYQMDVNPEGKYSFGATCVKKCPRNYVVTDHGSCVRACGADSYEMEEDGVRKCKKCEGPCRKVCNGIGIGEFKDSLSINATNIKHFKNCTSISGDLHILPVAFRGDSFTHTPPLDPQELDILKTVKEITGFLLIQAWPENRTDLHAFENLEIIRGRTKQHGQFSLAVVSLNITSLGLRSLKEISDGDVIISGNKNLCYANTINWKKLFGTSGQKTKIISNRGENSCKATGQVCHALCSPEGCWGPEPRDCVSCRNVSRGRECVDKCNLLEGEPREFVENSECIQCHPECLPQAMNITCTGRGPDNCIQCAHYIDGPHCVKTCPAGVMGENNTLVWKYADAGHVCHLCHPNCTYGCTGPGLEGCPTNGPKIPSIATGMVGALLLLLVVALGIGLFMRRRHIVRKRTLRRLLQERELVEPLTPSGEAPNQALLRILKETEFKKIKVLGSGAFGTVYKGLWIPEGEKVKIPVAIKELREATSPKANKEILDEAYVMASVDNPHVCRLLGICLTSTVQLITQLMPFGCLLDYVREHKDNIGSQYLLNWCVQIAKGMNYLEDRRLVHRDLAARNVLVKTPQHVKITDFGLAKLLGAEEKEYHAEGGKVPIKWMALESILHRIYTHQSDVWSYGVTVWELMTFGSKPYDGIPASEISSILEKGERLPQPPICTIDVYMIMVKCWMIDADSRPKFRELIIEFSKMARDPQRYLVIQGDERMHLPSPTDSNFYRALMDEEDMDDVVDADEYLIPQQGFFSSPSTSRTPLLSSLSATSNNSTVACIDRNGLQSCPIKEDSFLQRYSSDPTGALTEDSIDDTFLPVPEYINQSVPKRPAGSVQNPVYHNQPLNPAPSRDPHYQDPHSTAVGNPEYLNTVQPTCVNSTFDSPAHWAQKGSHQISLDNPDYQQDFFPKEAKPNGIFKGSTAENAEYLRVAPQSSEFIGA
Sequence of Epidermal growth factor receptor (Homo sapiens, UniProt P00533, EX19DEL) (P00533 whole entry, looked up, stated change not applied): as the sequence (P00533 whole entry) above
Sequence of Epidermal growth factor receptor (Homo sapiens), P00533 [T790M] (P00533 whole entry T790M): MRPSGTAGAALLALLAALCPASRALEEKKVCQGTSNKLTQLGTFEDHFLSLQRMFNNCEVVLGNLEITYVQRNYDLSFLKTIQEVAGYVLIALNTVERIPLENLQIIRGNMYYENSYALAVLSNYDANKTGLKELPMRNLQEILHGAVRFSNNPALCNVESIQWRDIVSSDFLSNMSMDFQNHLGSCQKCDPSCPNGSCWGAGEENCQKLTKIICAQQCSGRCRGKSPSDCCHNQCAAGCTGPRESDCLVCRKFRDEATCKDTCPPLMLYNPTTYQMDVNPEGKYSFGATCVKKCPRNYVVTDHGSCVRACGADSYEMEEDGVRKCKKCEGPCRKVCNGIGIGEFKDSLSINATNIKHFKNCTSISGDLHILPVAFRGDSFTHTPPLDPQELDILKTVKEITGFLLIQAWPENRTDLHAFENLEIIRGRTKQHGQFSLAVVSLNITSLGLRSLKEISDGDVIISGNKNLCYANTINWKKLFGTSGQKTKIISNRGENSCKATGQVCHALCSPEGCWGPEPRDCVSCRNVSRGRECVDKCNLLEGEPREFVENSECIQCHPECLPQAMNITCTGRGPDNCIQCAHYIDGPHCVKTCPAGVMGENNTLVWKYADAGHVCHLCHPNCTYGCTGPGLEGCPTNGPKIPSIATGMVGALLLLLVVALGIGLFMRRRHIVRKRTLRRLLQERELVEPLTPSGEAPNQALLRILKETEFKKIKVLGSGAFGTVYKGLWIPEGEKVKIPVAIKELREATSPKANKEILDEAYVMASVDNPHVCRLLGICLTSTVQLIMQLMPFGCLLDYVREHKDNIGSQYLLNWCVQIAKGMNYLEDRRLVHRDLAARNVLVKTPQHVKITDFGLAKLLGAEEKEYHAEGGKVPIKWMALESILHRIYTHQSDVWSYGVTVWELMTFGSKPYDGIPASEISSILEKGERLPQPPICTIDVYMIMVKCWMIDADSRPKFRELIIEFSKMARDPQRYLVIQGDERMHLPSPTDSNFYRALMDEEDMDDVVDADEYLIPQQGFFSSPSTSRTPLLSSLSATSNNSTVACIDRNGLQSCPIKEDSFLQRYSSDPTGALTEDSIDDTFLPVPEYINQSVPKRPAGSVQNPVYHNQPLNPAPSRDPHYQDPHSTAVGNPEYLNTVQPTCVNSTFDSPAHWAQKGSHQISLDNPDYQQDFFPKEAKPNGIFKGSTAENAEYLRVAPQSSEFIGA

Row | EC50 [1] [nM] | solubility [2] [µM] | microsomal CLint [3] [µL/min/mg] | EC50 [4] [nM] | EC50 [5] [nM] | SMILES | further results
1 | 10 | 300 (≈ 156 µg/mL) | 169 | 18 | 4390 | C=CC(=O)Nc1cccc(-n2c(-c3nc(-c4cnn(C5CCN(C)CC5)c4)cnc3N)nc3cnccc32)c1 | –
2 | 120 | – | – | 550 | 3380 | C=CC(=O)Nc1ccc(-n2c(-c3nc(-c4cnn(C5CCN(C)CC5)c4)cnc3N)nc3ccccc32)cc1 | –
3 | 8 | < 10 | 54 | 12 | 2250 | C=CC(=O)Nc1cccc(-n2c(-c3nc(-c4cnn(CCO)c4)cnc3N)nc3ccccc32)c1 | –
4 | 43 | < 10 | – | 73 | 4390 | C=CC(=O)Nc1ccc(F)c(-n2c(-c3nc(-c4cnn(C5CCN(C)CC5)c4)cnc3N)nc3ccccc32)c1 | –
5 | 9 | < 10 | 37 | 14 | 760 | C=CC(=O)Nc1cccc(-n2c(-c3nc(-c4cnn(C5CCN(C(C)C)CC5)c4)cnc3N)nc3ccccc32)c1 | –
6 | 16 | < 10 | 197 | 9 | 1960 | C=CC(=O)Nc1cccc(-n2c(-c3nc(-c4cnn(C5CCN(CC)CC5)c4)cnc3N)nc3ccccc32)c1 | –
7 | – | – | – | – | – | CCn1c(-c2nc(-c3cnn(C4CCN(C)CC4)c3)cnc2N)nc2ccccc21 | IC50 [6]: 50 nM; inhibition [7]: Active; Ratio IC50 (Homo sapiens): 5
8 | 26 | < 10 | – | 23 | 2060 | C=CC(=O)Nc1cccc(-n2c(-c3nc(-c4cnn(C5CCN(C)CC5)c4)cnc3N)nc3ccccc32)c1F | –
9 | – | – | – | 14900 | – | C=CC(=O)NCCn1c(-c2nc(-c3cnn(C4CCN(C)CC4)c3)cnc2N)nc2ccccc21 | IC50 [6]: 2200 nM
10 | 9 | < 10 | 24 | 10 | 1070 | C=CC(=O)Nc1cccc(-n2c(-c3nc(-c4cnn(C)c4)cnc3N)nc3ccccc32)c1 | –
11 | 8010 | – | – | > 30000 | > 30000 | CC(=O)Nc1cccc(-n2c(-c3nc(-c4cnn(C5CCN(C)CC5)c4)cnc3N)nc3ccccc32)c1 | –
12 | 100 | 540 (≈ 281 µg/mL) | 68 | 150 | > 15000 | C=CC(=O)Nc1cccc(-n2c(-c3nc(-c4cnn(C5CCN(C)CC5)c4)cnc3N)nc3ccncc32)c1 | –
13 | 3 | 35 (≈ 18.7 µg/mL) | – | 7 | 420 | C=CC(=O)Nc1ccccc1Cn1c(-c2nc(-c3cnn(C4CCN(C)CC4)c3)cnc2N)nc2ccccc21 | Stability [8]: Unstable
14 | 23 | < 10 | > 300 | 22 | 3510 | C=CC(=O)Nc1cccc(-n2c(-c3nc(-c4cnn(C5CCN(C(C)=O)CC5)c4)cnc3N)nc3ccccc32)c1 | –
15 | 18 | < 10 | > 300 | 24 | 3000 | C=CC(=O)Nc1cccc(-n2c(-c3nc(-c4cnn(C5CCN(C(=O)CO)CC5)c4)cnc3N)nc3ccccc32)c1 | –
16 | 13 | 18 (≈ 10.6 µg/mL) | 66 | 15 | 1140 | C=CC(=O)Nc1cccc(-n2c(-c3nc(-c4cnn(C5CCN(C(=O)CN(C)C)CC5)c4)cnc3N)nc3ccccc32)c1 | –
17 | 15 | 30 (≈ 16.5 µg/mL) | 60 | 15 | 2310 | C=CC(=O)Nc1cccc(-n2c(-c3nc(-c4cnn(CCN5CCN(C)CC5)c4)cnc3N)nc3ccccc32)c1 | –
18 | 9130 | – | – | > 20000 | > 30000 | C=C(C)C(=O)Nc1cccc(-n2c(-c3nc(-c4cnn(C5CCN(C)CC5)c4)cnc3N)nc3ccccc32)c1 | –
19 | 22 | < 10 | 298 | 24 | 5000 | C=CC(=O)Nc1cccc(-n2c(-c3nc(-c4cnn(CCN5CCOCC5)c4)cnc3N)nc3ccccc32)c1 | –
20 | – | – | – | – | – | CN1CCC(n2cc(-c3cnc(N)c(-c4nc5ccccc5[nH]4)n3)cn2)CC1 | IC50 [6]: 290 nM; inhibition [7]: Active; Ratio IC50 (Homo sapiens): 5
21 | 280 | – | – | 360 | > 25000 | C=CC(=O)Nc1cccc(Cn2c(-c3nc(-c4cnn(C5CCN(C)CC5)c4)cnc3N)nc3ccccc32)c1 | –
22 | – | – | – | 1710 | – | C=CC(=O)NCCCn1c(-c2nc(-c3cnn(C4CCN(C)CC4)c3)cnc2N)nc2ccccc21 | IC50 [6]: 200 nM
23 | 370 | < 10 | – | 1340 | > 20000 | C=CC(=O)Nc1cc(-n2c(-c3nc(-c4cnn(C5CCN(C)CC5)c4)cnc3N)nc3ccccc32)ccc1OC | –
24 | 5060 | – | – | 1780 | > 30000 | C=CC(=O)Nc1ccc(Cn2c(-c3nc(-c4cnn(C5CCN(C)CC5)c4)cnc3N)nc3ccccc32)cc1 | –
25 | 250 | – | – | 390 | 10900 | C=CC(=O)N(C)c1cccc(-n2c(-c3nc(-c4cnn(C5CCN(C)CC5)c4)cnc3N)nc3ccccc32)c1 | –
26 | 9 | < 10 | 120 | 14 | 980 | C=CC(=O)Nc1cccc(-n2c(-c3nc(-c4cnn(C5CCN(C)CC5)c4)cnc3N)nc3ccccc32)c1 | GI50 [9]: 16 nM; IC50 [6]: < 1 nM; inhibition in vivo at 50 mg/kg/day (A-431): 21%; inhibition in vivo at 50 mg/kg/day [10]: 238%; inhibition in vivo at 50 mg/kg/day (NCI-H1975 [11]): 117%; GI50 at 72 h [12]: 1700 nM; selectivity ratio [13]: > 60; Time (Mus musculus): 6 h; inhibition [14]: > 75%; GI50 (NCI-H1975 [15]): 25 nM; inhibition [16]: > 75%; inhibition [17]: > 75%
